Experimental findings from paper PMC7381538, “Broad spectrum antibiotic-degrading metallo-β-lactamases are phylogenetically diverse” (Protein & Cell, 2020) are described below.

The target in experiment [1] is SPR-1trunc (Serratia proteamaculans, UniProt Z9GZR1QZ95). The experiment is classed as biochemical. The conditions noted are these: beta-lactam substrate and mode only in supplement.
Experiment [2] deals with SER-1trunc. It is filed as biochemical. To be noted: beta-lactam substrate and mode only in supplement.

pKi: −log10 of the molar value.

Sequence of SPR-1trunc (Z9GZR1QZ95 50-298 limits assumed): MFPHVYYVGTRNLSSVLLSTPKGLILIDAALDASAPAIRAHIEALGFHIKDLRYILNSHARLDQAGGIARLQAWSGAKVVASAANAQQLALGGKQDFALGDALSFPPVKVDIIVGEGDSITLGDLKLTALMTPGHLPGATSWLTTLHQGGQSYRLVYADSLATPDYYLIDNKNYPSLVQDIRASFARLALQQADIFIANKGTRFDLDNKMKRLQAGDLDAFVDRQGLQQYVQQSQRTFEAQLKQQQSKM

As usually defined, the pKi is the Ki on a negative log10 scale, so that one unit is a factor of ten. In the case of `O=C(O)[C@H]1/C(=C/CO)O[C@@H]2CC(=O)N21` [CA, clavulanic acid], the pKi in experiment [1] is 3.70; in experiment [2] it was 3.54.
